Test results taken from patent US7605272B2, “IGF-1R inhibitor” (Kyowa Hakko Kirin Co., Ltd., priority 2005, dated 2009).
Where two headings read alike, the source gives them in different places.

Key:
NCI-H929 = assay: Cytostatic activity on human multiple myeloma cell line NCI-H929 (WST-1); assay type: cell-based; conditions: for inhibition at 1 µM / inhibition at 10 µM: Homo sapiens; for inhibition at 1 µM: read-out: cytostatic rate (%) H929 (1 μmol/L); for inhibition at 10 µM: 10 μmol/L, read-out: cytostatic rate (%) H929 (10 μmol/L)
How it was run: (§1)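 Cells pre-cultured 24 h at 37 °C, 5% CO2, then exposed 72 h to compound at final 1 or 10 μmol/L (0.1% DMSO). WST-1 added for 2 h, absorbance at 450 nm (ref 690 nm). Cytostatic rate = 100 minus relative growth, with DMSO control as 100% and blank as 0%.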

KMS-11 = assay: Cytostatic activity on human multiple myeloma cell line KMS-11 (WST-1); assay type: cell-based; conditions: for inhibition at 1 µM / inhibition at 10 µM: Homo sapiens; for inhibition at 1 µM: read-out: cytostatic rate (%) KMS-11 (1 μmol/L); for inhibition at 10 µM: 10 μmol/L, read-out: cytostatic rate (%) KMS-11 (10 μmol/L)
How it was run: as §1

IGF-1R = target: T1, IGF-1R (Homo sapiens, UniProt P08069); assay: IGF-1R inhibitory activity (kinase reaction, time-resolved fluoroimmunoassay); assay type: biochemical; conditions: test compound 10 μmol/L
T1 construct: purchased Upstate Co. 14-465
T1 sequence (P08069 959-1367 limits assumed): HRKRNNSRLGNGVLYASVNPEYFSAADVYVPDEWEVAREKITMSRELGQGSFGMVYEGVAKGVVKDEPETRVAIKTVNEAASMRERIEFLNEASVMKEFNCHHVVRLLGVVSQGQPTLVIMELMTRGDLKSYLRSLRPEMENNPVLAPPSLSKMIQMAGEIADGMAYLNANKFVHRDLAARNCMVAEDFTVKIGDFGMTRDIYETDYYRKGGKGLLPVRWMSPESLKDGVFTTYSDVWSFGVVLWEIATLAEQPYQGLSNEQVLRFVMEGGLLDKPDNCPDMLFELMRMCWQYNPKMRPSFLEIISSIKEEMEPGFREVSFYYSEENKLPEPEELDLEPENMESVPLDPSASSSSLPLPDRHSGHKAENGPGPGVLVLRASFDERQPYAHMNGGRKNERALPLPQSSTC
How it was run: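 Compounds were tested at a single 10 μmol/L concentration. Each was incubated with recombinant IGF-1R (200 μg/L), 10 mmol/L ATP, MgCl2/MnCl2 and Na3VO4 (pH 7.5) on immobilized poly(Glu-Tyr) peptide for 30 min at 24° C. Eu-anti-phosphotyrosine time-resolved fluorescence (340/615 nm) gave relative activity against no-compound and no-enzyme wells, reported as % inhibition.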

[1] = NCI-H929, 72 h, 1 μmol/L, 72 hours
[2] = KMS-11, 72 h, 1 μmol/L, 72 hours
[3] = IGF-1R active recombinant enzyme
[4] = NCI-H929, 72 h, NCI-H929 cells, test compound 1 μmol/L, WST-1
[5] = KMS-11, 72 h, KMS-11 cells, test compound 1 μmol/L, WST-1

Compound: Cc1ccsc1C(=O)Nc1cc(CN2CCN(C)CC2)ccc1/C=C/c1n[nH]c2ccccc12 [Compound 234, (E)-N-{2-[2-(1H-indazol-3-yl)vinyl]-5-(4-methylpiperazin-1-ylmethyl)phenyl}-3-methylthiophene-2-carboxamide]
- inhibition at 1 µM (NCI-H929; [1]): 118%
- inhibition at 1 µM (KMS-11; [2]): 111%
- inhibition at 10 µM (IGF-1R; [3]): 102%

Compound: COc1cc(/C=C/c2n[nH]c3ccccc23)c(NC(=O)c2cccn2C)cc1OC [Compound 96, (E)-N-{2-[2-(1H-indazol-3-yl)vinyl]-4,5-dimethoxyphenyl}-1-methyl-1H-pyrrole-2-carboxamide]
- inhibition at 10 µM (NCI-H929; NCI-H929, 72 h, 72 hours): 117%
- inhibition at 10 µM (KMS-11; KMS-11, 72 h, 72 hours): 117%
- inhibition at 10 µM (IGF-1R): 100%

Compound: Nc1ccn(C(=O)c2ccccc2/C=C/c2n[nH]c3ccccc23)n1 [Compound 48, (E)-3-amino-1-{2-[2-(1H-indazol-3-yl)vinyl]benzoyl}pyrazole]
- inhibition at 10 µM (NCI-H929; NCI-H929, 72 h, 72 hours): 111%
- inhibition at 10 µM (KMS-11; KMS-11, 72 h, 72 hours): 90.1%
- inhibition at 10 µM (IGF-1R; [3]): 99.3%

Compound: Cn1cccc1C(=O)Nc1cc(CN2CCNCC2)ccc1/C=C/c1n[nH]c2ccccc12 [Compound 332]
- cytostatic rate (%) H929 (1 μmol/L) (NCI-H929; NCI-H929 cells, test compound 1 μmol/L, WST-1): 113.9%
- cytostatic rate (%) KMS-11 (1 μmol/L) (KMS-11; KMS-11 cells, test compound 1 μmol/L, WST-1): 89.9%
- inhibitory activity (%) at 10 μmol/L (IGF-1R; [3]): 102.6%

Compound: COC(=O)c1c[nH]c(-c2ccccc2/C=C/c2n[nH]c3ccccc23)n1 [Compound 195, (E)-2-{2-[2-(1H-indazol-3-yl)vinyl]phenyl}-3H-imidazole-4-carboxylic acid methyl ester]
- inhibition at 10 µM (NCI-H929; NCI-H929, 72 h, 72 hours): 111%
- inhibition at 10 µM (KMS-11; KMS-11, 72 h, 72 hours): 97.7%
- inhibition at 10 µM (IGF-1R; [3]): 100%

Compound: Cc1ccsc1C(=O)Nc1cc(CN2CCC(CCC(C)(C)O)CC2)ccc1/C=C/c1n[nH]c2ccccc12 [Compound 322, (E)-N-{5-[4-(3-hydroxy-3-methylbutyl)piperidin-1-ylmethyl]-2-[2-(1H-indazol-3-yl)vinyl]phenyl}-3-methylthiophene-2-carboxamide]
- inhibition at 1 µM (NCI-H929; [4]): 122%
- inhibition at 1 µM (KMS-11; [5]): 106%
- inhibition at 10 µM (IGF-1R; [3]): 99.1%

Compound: CC(=O)N1CCN(C(=O)c2ccc(/C=C/c3n[nH]c4ccccc34)c(NC(=O)c3cccn3C)c2)CC1 [Compound 91, (E)-N-{5-(4-acetylpiperazin-1-ylcarbonyl)-2-[2-(1H-indazol-3-yl)vinyl]phenyl}-1-methyl-1H-pyrrole-2-carboxamide]
- inhibition at 10 µM (NCI-H929; NCI-H929, 72 h, 72 hours): 115%
- inhibition at 10 µM (KMS-11; KMS-11, 72 h, 72 hours): 144%
- inhibition at 10 µM (IGF-1R): 98.7%

Compound: CN(C)C(=O)c1ccc(/C=C/c2n[nH]c3ccccc23)c(N2C(=O)c3cccc(N)c3C2=O)c1 [Compound 326, (E)-3-(4-amino-1,3-dioxo-1,3-dihydroisoindol-2-yl)-4-[2-(1H-indazol-3-yl)vinyl]-N,N-dimethylbenzamide]
- inhibition at 1 µM (NCI-H929; [4]): 118%
- inhibition at 1 µM (KMS-11; [5]): 102%
- inhibition at 10 µM (IGF-1R; [3]): 103%

Compound: Cc1ccsc1C(=O)Nc1cc(CN2CC[C@@H](O)C2)ccc1/C=C/c1n[nH]c2ccccc12 [Compound 330, (R)-(E)-N-{5-(3-hydroxypyrrolidin-1-ylmethyl)-2-[2-(1H-indazol-3-yl)vinyl]phenyl}-3-methylthiophene-2-carboxamide]
- inhibition at 1 µM (NCI-H929; [4]): 131%
- inhibition at 1 µM (KMS-11; [5]): 112%
- inhibition at 10 µM (IGF-1R; [3]): 102%

Compound: O=C1c2ccccc2C(=O)N1c1cc2c(cc1/C=C/c1n[nH]c3ccccc13)OCO2 [Compound 151, (E)-N-2-{6-[2-(1H-indazol-3-yl)vinyl]benzo[1,3]dioxol-5-yl}isoindole-1,3-dione]
- inhibition at 10 µM (NCI-H929; NCI-H929, 72 h, 72 hours): 104%
- inhibition at 10 µM (KMS-11; KMS-11, 72 h, 72 hours): 83.2%
- inhibition at 10 µM (IGF-1R; [3]): 100%

Compound: COCCN(CCN1CCOCC1)c1ccc(/C=C/c2n[nH]c3ccccc23)c(NC(=O)c2sccc2C)c1 [Compound 267, (E)-N-{2-[2-(1H-indazol-3-yl)vinyl]-5-[N-(2-methoxyethyl)-2-(morpholinoethyl)amino]phenyl}-3-methylthiophene-2-carboxamide]
- cytostatic rate (%) H929 (1 μmol/L) (NCI-H929; 1 μmol/L, 72 hours): 118.1%
- cytostatic rate (%) KMS-11 (1 μmol/L) (KMS-11; 1 μmol/L, 72 hours): 133.8%
- inhibitory activity (%) at 10 μmol/L (IGF-1R; [3]): 100.3%

Compound: Cc1ccsc1C(=O)Nc1cc(C(=O)N2CCN(C(=O)[C@@H]3CCCN3)CC2)ccc1/C=C/c1n[nH]c2ccccc12 [Compound 231, (S)-(E)-N-{2-[2-(1H-indazol-3-yl)vinyl]-5-[4-(pyrrolidin-2-ylcarbonyl)piperazin-1-ylcarbonyl]phenyl}-3-methylthiophene-2-carboxamide]
- inhibition at 1 µM (NCI-H929; [1]): 122%
- inhibition at 1 µM (KMS-11; [2]): 80.2%
- inhibition at 10 µM (IGF-1R; [3]): 99.7%

Compound: Cc1ccsc1C(=O)Nc1ccc(O)cc1/C=C/c1n[nH]c2ccccc12 [Compound 110, (E)-N-{4-hydroxy-2-[2-(1H-indazol-3-yl)vinyl]phenyl}-3-methylthiophene-2-carboxamide]
- inhibition at 10 µM (NCI-H929; NCI-H929, 72 h, 72 hours): 116%
- inhibition at 10 µM (KMS-11; KMS-11, 72 h, 72 hours): 118%
- inhibition at 10 µM (IGF-1R): 96.3%

Compound: O=C(Nc1nncs1)c1ccccc1/C=C/c1n[nH]c2ccccc12 [Compound 145, (E)-2-[2-(1H-indazol-3-yl)vinyl]-N-([1,3,4]thiadiazol-2-yl)benzamide]
- inhibition at 10 µM (NCI-H929; NCI-H929, 72 h, 72 hours): 126%
- inhibition at 10 µM (KMS-11; KMS-11, 72 h, 72 hours): 116%
- inhibition at 10 µM (IGF-1R; [3]): 93.4%

Compound: O=C(Nc1cccnc1)c1ccccc1/C=C/c1n[nH]c2ccccc12 [Compound 142, (E)-2-[2-(1H-indazol-3-yl)vinyl]-N-(pyridin-3-yl)benzamide]
- inhibition at 10 µM (NCI-H929; NCI-H929, 72 h, 72 hours): 104%
- inhibition at 10 µM (KMS-11; KMS-11, 72 h, 72 hours): 84.9%
- inhibition at 10 µM (IGF-1R; [3]): 92.8%

Compound: Cc1ccsc1C(=O)Nc1cc(N2CCN(CCO)CC2)ccc1/C=C/c1n[nH]c2ccccc12 [Compound 273, (E)-N-{5-[4-(2-hydroxyethyl)piperazin-1-yl]-2-[2-(1H-indazol-3-yl)vinyl]phenyl}-3-methylthiophene-2-carboxamide]
- inhibition at 1 µM (NCI-H929; [1]): 115%
- inhibition at 1 µM (KMS-11; [2]): 111%
- inhibition at 10 µM (IGF-1R; [3]): 104%

Compound: Cc1cc(C(=O)Nc2ccccc2/C=C/c2n[nH]c3ccccc23)ccc1N [Compound 158, (E)-4-amino-N-{2-[2-(1H-indazol-3-yl)vinyl]phenyl}-3-methylbenzamide]
- inhibition at 10 µM (NCI-H929; NCI-H929, 72 h, 72 hours): 113%
- inhibition at 10 µM (KMS-11; KMS-11, 72 h, 72 hours): 108%
- inhibition at 10 µM (IGF-1R; [3]): 99.5%

Compound: CC(=O)N1CCN(C(=O)c2ccc(/C=C/c3n[nH]c4ccccc34)c(NC(=O)Cc3cccs3)c2)CC1 [Compound 89, (E)-N-{5-(4-acetylpiperazin-1-ylcarbonyl)-2-[2-(1H-indazol-3-yl)vinyl]phenyl}-2-(thiophen-2-yl)acetamide]
- inhibition at 10 µM (NCI-H929; NCI-H929, 72 h, 72 hours): 114%
- inhibition at 10 µM (KMS-11; KMS-11, 72 h, 72 hours): 138%
- inhibition at 10 µM (IGF-1R): 98.4%

Compound: COc1cc(/C=C/c2n[nH]c3ccccc23)c(NC(=O)c2sccc2C)cc1OCCCN1CCOCC1 [Compound 292, (E)-N-{2-[2-(1H-indazol-3-yl)vinyl]-4-methoxy-5-[3-(morpholin-4-yl)propyloxy]phenyl}-3-methylthiophene-2-carboxamide]
- inhibition at 1 µM (NCI-H929; [1]): 113%
- inhibition at 1 µM (KMS-11; [2]): 122%
- inhibition at 10 µM (IGF-1R; [3]): 97.2%

Compound: Cc1ccsc1C(=O)Nc1cc(C(=O)N2CCC3(CC2)OCCO3)ccc1/C=C/c1n[nH]c2ccccc12 [Compound 119, (E)-N-{5-(1,4-dioxa-8-azaspiro[4,5]decane-8-carbonyl)-2-[2-(1H-indazol-3-yl)vinyl]phenyl}-3-methylthiophene-2-carboxamide]
- inhibition at 10 µM (NCI-H929; NCI-H929, 72 hours): 117%
- inhibition at 10 µM (KMS-11; KMS-11, 72 hours): 116%
- inhibition at 10 µM (IGF-1R): 102%

Compound: Cn1cccc1CC(=O)Nc1ccccc1/C=C/c1n[nH]c2ccccc12 [Compound 73, (E)-N-{2-[2-(1H-indazol-3-yl)vinyl]phenyl}-2-(1-methyl-1H-pyrrole-2-yl)acetamide]
- inhibition at 10 µM (NCI-H929; NCI-H929, 72 h, 72 hours): 80%
- inhibition at 10 µM (KMS-11; KMS-11, 72 h, 72 hours): 90.4%
- inhibition at 10 µM (IGF-1R; [3]): 88%
